Here are results for two compounds from patent publication US8653049B2, “Normuramyl glycopeptide compounds” (priority 2008, dated 2014).

“Also recorded” adds a separate entry of the source.

Data set [1] concerns myelin basic protein induced EAE. Briefly: Experimental allergic encephalomyelitis (EAE), Th1 adjuvant activity. It is filed as in vivo, guinea pigs.
In data set [2] the test system is Salmonella enteritidis. The data set can be described thus: Stimulation of innate immunity against Salmonella Enteritidis. The note with it: liposomal, 20 nmol per dose p.o. 72 and 24 h before infection (LD50); 5 mice.
For data set [3] the following is noted: rabbits, liposomal preparations s.c. 100 nmol/kg, 3 rabbits per group; passes if below 1.1° C. The protocol:
The test was conducted in an authorised laboratory, ITEST plus s.r.o., Bilé Vchýnice 10, 533 13 Vápno u Prelouce, Czech Republic, according to guide-lines CL 2005.
Rabbits (New Zeeland albino, 4-6 kg, 3 animals per group) were used for testing.
Liposomal preparations of muramyl glycopeptide derivatives were administered s.c. (100 nmol/kg). Empty liposomes were used as negative control and the liposomal as well as the free form of muramyl dipeptide (MDP) (25 μg/kg, corresponding to 50.7 nmol/kg) served as positive control. Temperature was measured in 1, 2, 3, 4,6 and 24 hour intervals.
Empty liposomes were used as negative control; and liposomal as well as free muramyl dipeptide (MDP) (50.7 nmol/kg) served as positive control. B30-norAbu-MDP (MT01, structure on page 5) served as additional control. Temperature was measured in 1, 2, 3, 4, 6 and 24 h intervals. The preparation passed the test if the Sum of ΔTmax remained below 1.1° C. (3 rabbits per group)

Data set [4] has as its system GM-CFC progenitors in bone marrow. The data set can be described thus: GM-CFC recovery, test compounds after sub-lethal irradiation. It is filed as in vivo, ICR/CD-1 mice. The note with it: s.c. 100 nmol 24 h after 6 Gy, FIG. 36. As for the experimental part:
(§1) Institite of Cancer Research (ICR/CD-1) mice (female, age of 3 months, 3-4 per group) were stimulated by s.c. administration of test compounds (volume of 200 μl, 100 nmol per dose) 24 h before sublethal γ-irradiation (6 Gy, ^60Co γray source Chisostat, Chirana Ltd., Czech Republic, at a dose of 0.285 Gy/min.). Mice were sacrified at day 13 and recovery of GM-CFC in femour was assayed by counting of colonies (CFC) formed after cultivation in medium. Non-irradiated mice were used as control for normal GM-CFC count in femour. PBS and empty liposomes were used as controls for spontaneous recovery. Liposomal MDP was used as reference standard.
(§2) The following parameters of hemopoiesis were evaluated: • a) Blood leukocyte counts and bone marrow cellularity. Blood leukocytes (samples of blood drawn from an incision of the tail vein) and nucleated cell elements of the femoral bone marrow (femoral diaphyses flushed with saline) were estimated by means of Coulter Counter (Model ZN, Coulter Electronics). • b) Colony-forming cells in spleen. Endogenous spleen colony-forming units (E-CFUs) were measured on day 9 post the whole-body irradiation with 6.5 Gy (5 mice per group) according to Till and McCulloch. • c) GM-CFC progenitors in bone marrow. Femoral bone marrow cells were obtained from mice by flushing the femour with sterile IMDM medium. Harvested cells were calculated and diluted to 1.5×10^5 cells/ml and plated in triplicate in a semisolid environment created by plasma clot (Iscovess modification of Dulbecco's medium, 20% of fetal calf serum, 10% of colony-stimulating factor, 10% of citrate plasma, and CaCl2 1.5 mg/ml). The cultures were incubated for 7 days at 37° C. in 5% CO2. Colonies of at least 50 cells were scored at 40× magnification.
The method is exactly as described above except that the test compounds (volume of 200 μl, 100 nmol per dose) were administered 24 h after sublethal γ-irradiation (6 Gy).

Data set [5] has as its system tetanus toxoid (TaT) specific IgG antibodies. Details: species or system BALB/c mice. As to conditions: mouse, in vivo, sc.
The subject of data set [6] is Friend leukemia virus (FLV). Briefly: Friend leukemia virus infection: survival, TER-119+ cells, spleen. The note with it: for survival, early phase (day 43): saline control 82%; for clonal expansion of TER-119+ erythroleukaemia cells in spleen / spleen size (weight): day 16; for clonal expansion of TER-119+ erythroleukaemia cells in spleen: FIG. 24; for spleen size (weight): FIG. 25.

Data set [7] has as its system NK sensitive K562 cell line. The data set can be described thus: NK cell cytotoxicity of human PBMC, 51Cr-release against K562. It is filed as cell-based. As to conditions: range 0.1 μM-100 μM; FIG. 28. As for the experimental part: Ex vivo effects of test compounds on NK cells were evaluated on human peripheral blood mononuclear cells (PBMC). The NK cell cytotoxicity of healthy donors in the presence or absence of test compounds was measured in standard 4 hrs ^51Cr-release assay against NK sensitive K562 cell line in effector (PBMC) to target (K562) ratio 16:1. Test compounds were added at a concentration of 10^−7 mol/ml.
Testing of compounds 23, 24, 32, 33, 40 and 41 for their capacity to induce cell-mediated cytotoxicity of human eripheral blood mononuclear cells (PBMCs) is shown in FIGS. 27 and 28. All donors were healthy. […] The cytotoxicity of untreated controls (30.5%) was renormalized to 100%.

The subject of data set [8] is r-hsp90 (Candida albicans hsp90) specific IgG antibodies. Briefly: Proteoliposome vaccine against C. albicans hsp90: antibody (humoral) response, ELISA. It is filed as in vivo, BALB/c mice. The note with it: Experiment 12.2; liposomal compound (5%) + Ni-HSP90, boost day 14; FIG. 13. The protocol:
Proteoliposomes were prepared by coupling recombinant hsp90 antigen (r-hsp90, 6×HISTag) via a metal chelating lipid to liposomes containing muramyl glycopeptide derivatives as adjuvant component. BALB/c […] mice 4 to 5 weeks old (female 20±2 g, 5 animal per group) were immunized by the intradermal route either with 20 μg of free or liposomal r-hsp90 (volume of 60 μl) either with or without L18-norAbu-MDP and boosted 21 days later by the same composition of experimental vaccine. FCA was used as positive control r-hsp90. Liposomal vaccine composition 20 μg of rHSP90 antigen, 5% metallochelating lipid, 5% particular MT analogue, 90% phospolipids.
Blood samples were collected from the tail vein into heparinised capillary PCV tubes. After centrifugation, the upper part of the tube, containing […] blood serum, was cut off, thrown into […] diluting solution and thoroughly shaken. Thus, a basic dilution of 1:33 was obtained. The pre-diluted sera were kept at −20° C. Blood samples were collected before the first immunization, 2 weeks thereafter and subsequently at weekly intervals up to the 4th week after the second immunisation. Specific IgG antibodies in blood serum samples were determined by the standard indirect ELISA procedure. The data obtained were processed statistically using the non-parametric Mann-Whitney U-test.
Proteoliposomes with muramyl glycopeptide derivatives were prepared as described above, but the boost was carried out already after 14 days. The liposomal vaccine composition was as for Experiment Set 1: 20 μg of rHSP90 antigen, 5% metallochelating lipid, 5% particular MT analogue, 90% phospolipids.
Controls: Aluminum hydroxide (AlOH) and Freund complete adjuvans (FCA) were used as positive controls. PBS with empty liposomes was used as negative control (control). Humoral response was tested at day 14 after vaccination (post priming) and at day 20 after vaccination (post booster). Antibody titres were wer assayed by ELISA.
For orientation: In an ELISA, binding on a coated surface is turned into a signal by an enzyme label.

Data set [9] deals with GM-CFC progenitors in bone marrow. Briefly: GM-CFC recovery, test compounds before sub-lethal irradiation. Type of data set: in vivo, ICR/CD-1 mice. The note with it: s.c. 100 nmol 24 h before 6 Gy, day 13; FIGS. 33-35. The protocol:
as §1, §2
Statistical significance between individual experimental groups of mice in hemopoietic parameters was calculated by one-way analysis of variance. The Newman-Keuls test for comparison of all pairs of columns and the Dunnett test for comparison of all columns with the control column were used in the analysis.

The test system of data set [10] is NK-sensitive YAC1 target cells. The data set can be described thus: NK cell-mediated cytotoxicity of spleen mononuclear cells, 51Cr-release against YAC1. As to conditions: FLV-inoculated mice, day 16, 18 h incubation with YAC1; FIG. 26.

For `CCCCCCCCCCCCCCCCCC(=O)N[C@H]1[C@H](O[C@H]2[C@H](OCC(=O)N[C@@H](CC)C(=O)N[C@H](CCC(=O)O)C(N)=O)[C@@H](NC(C)=O)C(O)O[C@@H]2CO)O[C@H](CO)[C@@H](O)[C@@H]1O` (stereo partly drawn) [Compound 23, N-[2-O-(2-deoxy-2-stearoylamino-β-D-glucopyranosyl-(1→4)-2-acetamido-2,3-dideoxy-α-D-glucopyranosid-3-yl)-glycoloyl]-L-α-aminobutanoyl-D-isoglutamine], the “Positive animals (%) (incidence of EAE)” value in [1] (50 μg myelin basic protein + 1 mg test compound in FIA, footpads, up to day 21, FCA positive control) stood at 86%. The “Th1 stimulation (EAE)” value in data set [1] (guinea pigs sensitized with bovine MBP in IFA + compound, FIG. 31) is “superior to MDP and GMDP as Th1 adjuvants”. Further, in [2], the “Day 6 Intest.: clear/infected/dead” value was 2/3/0, the “Day 6 Liver: clear/infected/dead” value is 0/5/0, the “Day 6 Lungs: clear/infected/dead” value is 1/4/0 and the “Day 6 Spleen: clear/infected/dead” value is recorded as 0/5/0. In addition, in data set [2], the “Day 12 Intest.: clear/infected/dead” value is 1/2/2, the “Day 12 Liver: clear/infected/dead” value is 1/2/2, the “Day 12 Lungs: clear/infected/dead” value is 1/2/2 and the “Day 12 Spleen: clear/infected/dead” value was 1/2/2. Also, the “+ΔTmax (Sum of ΔTmax)” value in data set [3] was 0.7 °C. Moreover, the “GM-CFC progenitor cells in bone marrow” value in [4] is on record as “strongest effect”. Also, the “GM-CFC progenitor cells in bone marrow” value in data set [4] (listed as compound 23) is “strongest performers”. Further, in data set [5], the anti-TaT antibody response result is on record as “did not show a significant antibody response” and the “anti-TaT antibody response (adjuvant activity)” value was “Strong adjuvant activity”. Moreover, the “survival, late phase (days 55 and 59), long-term” value in [6] (10 μmol i.p., non-liposomal, control 0%, FIG. 23) is “clearly worse at day 55”. The “survival, early phase (day 43)” value in [6] (10 μmol i.p., non-liposomal, FIG. 23) was “survival not worse than control at day 43”. In data set [6] (10 μmol i.p., non-liposomal, FIG. 23, listed as compound 23), the “survival, early phase (day 43)” value is recorded as “slightly better than saline control”. For the same compound, the “% of survivors on day 45” value in data set [6] (52 infected mice, non-liposomal compound i.p. day −10 and −3, infected non-treated 23) is 45%. In data set [6], the “clonal expansion of TER-119+ erythroleukaemia cells in spleen” value is reported as “positive effect on clonal expansion” and the “spleen size (weight)” value is reported as “increased spleen size”. Also, in data set [7], the “dose response of NK cell activity” value is reported as “positive dose response”.

Turning to `CCCCCCCCCCCCCCCCCC(=O)NCCCC[C@H](NC(=O)CC[C@@H](NC(=O)[C@H](CC)NC(=O)CO[C@H]1[C@H](O[C@@H]2O[C@H](CO)[C@@H](O)[C@H](O)[C@H]2NC(C)=O)[C@@H](CO)OC(O)[C@@H]1NC(C)=O)C(N)=O)C(=O)O` (stereo partly drawn) [Compound 40, N-[2-O-(2-Acetamido-2-deoxy-βD-glucopyranosyl-(1→4)-2-acetamido-2,3-dideoxy-D-glucopyranose-3-yl)-glycoloyl]-L-α-aminobutanoyl-D-isoglutaminyl-L-lysine(stearoyl)], in [2], the “Day 6 Intest.: clear/infected/dead” value is reported as 4/1/0, the “Day 6 Liver: clear/infected/dead” value is reported as 4/1/0, the “Day 6 Lungs: clear/infected/dead” value is given as 4/1/0 and the “Day 6 Spleen: clear/infected/dead” value is given as 5/0/0. In data set [2], the “Day 12 Intest.: clear/infected/dead” value is 0/2/3, the “Day 12 Liver: clear/infected/dead” value is 1/1/3, the “Day 12 Lungs: clear/infected/dead” value is 1/1/3 and the “Day 12 Spleen: clear/infected/dead” value was 1/1/3. Further, the “+ΔTmax (Sum of ΔTmax)” value in data set [3] came out at 0.6 °C. Also, the “GM-CFC progenitor cells in bone marrow” value in data set [4] is on record as “strongest performers; also recorded: strongest effect; also recorded: one of the best effects”. Moreover, in data set [6], the “clonal expansion of TER-119+ erythroleukaemia cells in spleen” value is reported as “dose-dependent, positive effect” and the “spleen size (weight)” value is given as “spleen size slightly lower than the control”. Moreover, the “dose response of NK cell activity” value in data set [7] is given as “negative dose response”. In [8], the “antibody response to r-hsp90 proteoliposomes” value was “strong and comparable to AlOH”. In addition, the “GM-CFC progenitor cells in bone marrow” value in data set [9] is “acceptable performance”. In addition, the “NK cell activity (cell-mediated cytotoxicity of SMCs)” value in data set [10] was “stimulate NK cell functional activity”.
